The source of these data is patent EP0870499A1, “Oral use of (+)-0-Demethyltramadol as analgesic” (Grünenthal GmbH, priority 1997, dated 1998).

Broadly, the ED50 is the dose at which the effect has come halfway, by size or by number of responders.

The structures appear in SMILES notation. Read-outs that look alike come from different tables or passages of the source.

For data set [1], the system named is weibliche Sprague Dawly-Ratten. The note with it: rat, in vivo.
Description: (§1) Dazu wurden männliche NMRI-Mäuse mit einem Gewicht von 20 bis 25 g oder weibliche Sprague Dawly-Ratten mit einem Gewicht von 120 bis 160 g verwendet. Die Tiere wurden einzeln in Testkäfige gesetzt und die Schwanzbasis einem fokussierten Wärmestrahl einer elektrischen Lampe (Rhema-Analgesiemeter) ausgesetzt. Die Lampenintensität wurde so eingestellt, daß die Zeit vom Einschalten der Lampe bis zum plötzlichen Wegzucken des Schwanzes (Schmerzlatenz) bei unbehandelten Tieren 3 bis 6 Sekunden betrug. Vor Gabe der erfindungsgemäß zu verwendenden Verbindung wurden die Tiere innerhalb von 5 Minuten zweimal getestet und der Mittelwert dieser Messungen als Vortestmittelwert berechnet. Die Schmerzmessung wurde 20, 40 und 60 Minuten nach intravenöser und 30, 60, 90, 120 Minuten nach oraler Gabe durchgeführt. Bei Anstieg der Schmerzlatenz wurde die maximale Expositionszeit auf 12 Sekunden beschränkt und die Zunahme der Latenzzeit von >150 % des Vortestmittelwerts als analgetische Wirkung gewertet. Zur Bestimmung der Dosisabhängigkeit wurden die Verbindungen in 3 bis 5 logarithmisch ansteigenden Dosen, die jeweils die Schwellen- und die maximale Wirkdosis einschlossen, appliziert und aus der Anzahl der Tiere, die analgetische Wirkung zeigten, nach der Methode von Litchfeld und Wilcoxon (J. Pharm. Ex. Ther. 96, 99 bis 113 (1949)) die ED50-Werte bestimmt. Die ED50-Berechnung erfolgte im Wirkmaximum jeweils 20 Minuten nach intravenöser und jeweils 30 Minuten nach oraler Substanzgabe.
(§2) Die Bestimmung der oralen Wirkverfügbarkeit erfolgte aus dem Verhältnis der ED50-Werte bei i.v.- und p.o.-Gabe. Wirkverfügbarkeit =(ED50 i.v.)/(ED50 p.o.) [formula]
The subject of data set [2] is weibliche Sprague Dawly-Ratten. Nature of the data set: Tail-flick test (radiant heat) in the rat. The following applies: for ED50: Rattus norvegicus. (In general: In hot-plate and tail-flick tests a longer latency is read as antinociception.)
Description: as §1, §2
A short description of data set [3]: Animal experiments on constipating effect (no method given). Type of data set: in vivo. The note with it: compared with Morphin.
Data set [4] deals with männliche NMRI-Mäuse. Description: Tail-flick test (radiant heat) in the mouse. The data set is classed as in vivo, Maus. The following applies: for ED50: Mus musculus.
Description: as §1, §2
Data set [5] deals with männliche NMRI-Mäuse. Description: Phenylquinone-induced writhing test in the mouse. Type of data set: in vivo, Maus. As to the method: Die Untersuchung auf analgetische Wirksamkeit wurde im Phenylchinon-induzierten Writhing an der Maus (modifiziert nach I. C. Hendershot, J. Forsaith, J. Pharmacol. Exp. Ther. 125, 237 - 240 (1959)) durchgeführt. Dazu wurden männliche NMRI-Mäuse mit einem Gewicht von 25 bis 30 g verwendet. Gruppen von 10 Tieren pro Substanzdosis erhielten 10 Minuten nach intravenöser Gabe und 30 Minuten nach oraler Gabe der erfindungsgemäß zu verwendenden Verbindungen 0,3 ml/Maus einer 0,02 %-igen wäßrigen Lösung des Phenylchinon (Phenylbenzochinon, Fa. Sigma, Deisenhofen; Herstellung der Lösung unter Zusatz von 5 % Ethanol und Aufbewahrung im Wasserbad bei 45° C) intraperitoneal appliziert. Die Tiere wurden einzeln in Beobachtungskäfige gesetzt und mittels Drucktastenzähler die Anzahl der Schmerz-induzierten Streckbewegungen (sogenannte Writhing-Reaktionen = Durchdrücken des Körpers nach Abstrecken der Hinterextremitäten) 5 bis 20 Minuten nach der Phenylchinongabe ausgezählt. Aus der dosisabhängigen Abnahme der Writhing-Reaktionen im Vergleich zu parallel untersuchten, nur mit Phenylchinon behandelten Kontrollgruppen wurden mittels Regressionsanalyse (Auswerteprogramm Martens, EDV-Serivce, Eckental) der ED50-Wert für die Hemmung der Writhing-Reaktlon berechnet.
(In general: An intraperitoneal irritant provokes the stretching counted in writhing tests.)

The mark [6] stands for this setting: iv, 20 min, read-out: ED50-Werte Tail-flick, Ratte i.v.
[7] abbreviates: po, 0.5 h, read-out: ED50-Werte Tail-flick, Ratte p.o.

With `CN1CC[C@]23c4c5ccc(O)c4O[C@H]2[C@@H](O)C=C[C@H]3[C@H]1C5` [Morphin, reference compound], the “orale Wirkverfügbarkeit” value in data set [1] is 0,01. Moreover, the 50% effective dose (ED50) in data set [2] (setting [6]) is 0.93 mg/kg; in data set [2] (setting [7]) it was 75 mg/kg.

`CN(C)C[C@H]1CCCC[C@]1(O)c1cccc(O)c1` [(+)-O-Demethyltramadol]: the “obstipierende Wirkungen” value in data set [3] is reported as “schwächere obstipierende Wirkungen als Morphin”. Further, the ED50 in data set [2] (setting [6]) stood at 1.01 mg/kg; in data set [2] (setting [7]), 4.9 mg/kg; in the data set on männliche NMRI-Mäuse [4] (iv, 20 min, read-out: ED50-Werte Tail-flick, Maus i.v.) it was 1.41 mg/kg; with männliche NMRI-Mäuse [4] (po, 0.5 h, read-out: ED50-Werte Tail-flick, Maus p.o.) it was 3.75 mg/kg; in the data set with männliche NMRI-Mäuse [5] (iv, 10 min, i.v., phenylquinone i.p. 10 min after dosing, read-out: ED50-Werte Writhing, Maus i.v.), 0.49 mg/kg; in the data set with männliche NMRI-Mäuse [5] (po, 0.5 h, p.o., phenylquinone i.p. 30 min after dosing, read-out: ED50-Werte Writhing, Maus p.o.) it was 1.87 mg/kg. Besides, the “analgetische Wirkung” value in data set [2] (Tail-flick test, rat, result in words) is recorded as “ausgeprägte analgetische Wirkung”; with männliche NMRI-Mäuse [5] (Writhing test, result in words), “ausgeprägte analgetische Wirkung”. The “orale Wirkverfügbarkeit” value in data set [2] (Tail-flick, rat, (ED50 i.v.)/(ED50 p.o.)) is 0,21; in the data set on männliche NMRI-Mäuse [4] (Tail-flick, mouse, (ED50 i.v.)/(ED50 p.o.)), 0,38; with männliche NMRI-Mäuse [5] (Writhing, (ED50 i.v.)/(ED50 p.o.)), 0,26. In addition, the “besser oral verfügbar als Morphin” value is about 20 mal in data set [2] (rat, tail-flick, relative to Morphin); about 5 mal with männliche NMRI-Mäuse [4] (mouse (tail-flick and writhing taken together), relative to Morphin).
